Experiments:
[1] = target: PI3K δ (Homo sapiens, UniProt O00329); experiment: In vitro IC50, PI3K δ; assay type: biochemical; design: purchased Upstate
Excerpt: (§1) An exemplary system is PI 3-Kinase (human) HTRF™ Assay from Upstate.

[2] = test system: B cell; experiment: B cell proliferation; assay type: cell-based
[3] = target: T1, PI3K γ (Homo sapiens, UniProt P48736); experiment: In vitro IC50, PI3K γ; assay type: biochemical
T1 construct: purchased Sigma
Excerpt: as §1

[4] = target: T2, PI3K α (Homo sapiens, UniProt P42336); experiment: In vitro IC50, PI3K α; assay type: biochemical
T2 construct: purchased Upstate
Excerpt: as §1

[5] = target: PI3K β (Homo sapiens, UniProt P42338); experiment: In vitro IC50, PI3K β; assay type: biochemical
Excerpt: as §1

PI3K δ, sequence (O00329 whole entry): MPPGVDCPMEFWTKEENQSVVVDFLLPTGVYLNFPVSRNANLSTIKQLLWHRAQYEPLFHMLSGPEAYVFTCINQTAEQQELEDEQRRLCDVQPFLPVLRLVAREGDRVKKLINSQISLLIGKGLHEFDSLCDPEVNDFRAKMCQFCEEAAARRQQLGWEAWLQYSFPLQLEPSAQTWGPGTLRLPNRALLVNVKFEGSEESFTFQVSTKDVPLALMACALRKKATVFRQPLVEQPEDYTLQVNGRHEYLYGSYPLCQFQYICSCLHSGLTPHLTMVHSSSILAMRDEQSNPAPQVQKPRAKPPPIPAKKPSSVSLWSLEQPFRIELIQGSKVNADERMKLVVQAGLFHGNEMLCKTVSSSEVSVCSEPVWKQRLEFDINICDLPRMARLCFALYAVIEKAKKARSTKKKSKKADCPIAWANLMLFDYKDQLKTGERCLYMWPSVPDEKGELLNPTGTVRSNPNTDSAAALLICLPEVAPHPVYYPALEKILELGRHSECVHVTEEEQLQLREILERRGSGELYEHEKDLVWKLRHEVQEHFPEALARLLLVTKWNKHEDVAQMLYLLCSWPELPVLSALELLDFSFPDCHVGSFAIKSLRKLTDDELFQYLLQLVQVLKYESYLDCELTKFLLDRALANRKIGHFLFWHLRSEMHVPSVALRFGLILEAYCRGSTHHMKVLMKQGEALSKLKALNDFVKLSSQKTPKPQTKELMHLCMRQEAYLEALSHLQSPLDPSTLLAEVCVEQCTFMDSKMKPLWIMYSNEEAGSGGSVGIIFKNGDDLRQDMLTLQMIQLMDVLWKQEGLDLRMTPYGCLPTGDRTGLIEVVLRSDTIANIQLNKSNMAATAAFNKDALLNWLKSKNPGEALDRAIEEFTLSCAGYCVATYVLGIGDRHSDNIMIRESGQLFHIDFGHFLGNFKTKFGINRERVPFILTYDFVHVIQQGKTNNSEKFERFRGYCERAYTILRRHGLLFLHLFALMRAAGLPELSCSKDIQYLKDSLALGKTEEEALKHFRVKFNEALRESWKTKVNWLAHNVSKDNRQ
PI3K δ, sequence (P27986 whole entry partner): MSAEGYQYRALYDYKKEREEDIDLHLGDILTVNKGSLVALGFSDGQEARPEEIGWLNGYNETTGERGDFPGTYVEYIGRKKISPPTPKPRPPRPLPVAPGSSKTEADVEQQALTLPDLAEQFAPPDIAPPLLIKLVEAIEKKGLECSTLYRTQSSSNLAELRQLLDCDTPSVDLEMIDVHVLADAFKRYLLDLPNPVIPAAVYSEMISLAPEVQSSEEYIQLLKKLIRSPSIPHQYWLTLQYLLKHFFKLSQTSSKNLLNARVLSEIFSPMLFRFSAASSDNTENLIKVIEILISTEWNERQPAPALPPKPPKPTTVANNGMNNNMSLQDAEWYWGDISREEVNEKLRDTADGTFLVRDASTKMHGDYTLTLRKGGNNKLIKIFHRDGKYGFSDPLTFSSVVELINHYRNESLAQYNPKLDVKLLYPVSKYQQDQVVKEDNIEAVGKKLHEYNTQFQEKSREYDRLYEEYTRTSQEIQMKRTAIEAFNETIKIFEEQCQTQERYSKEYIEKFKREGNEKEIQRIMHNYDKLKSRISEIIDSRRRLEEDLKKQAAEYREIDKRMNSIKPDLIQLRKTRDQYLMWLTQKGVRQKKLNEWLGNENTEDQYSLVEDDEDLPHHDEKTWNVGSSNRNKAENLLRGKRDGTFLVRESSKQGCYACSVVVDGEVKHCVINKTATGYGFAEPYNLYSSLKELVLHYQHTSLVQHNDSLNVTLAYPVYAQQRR
T2 sequence (P42336 whole entry): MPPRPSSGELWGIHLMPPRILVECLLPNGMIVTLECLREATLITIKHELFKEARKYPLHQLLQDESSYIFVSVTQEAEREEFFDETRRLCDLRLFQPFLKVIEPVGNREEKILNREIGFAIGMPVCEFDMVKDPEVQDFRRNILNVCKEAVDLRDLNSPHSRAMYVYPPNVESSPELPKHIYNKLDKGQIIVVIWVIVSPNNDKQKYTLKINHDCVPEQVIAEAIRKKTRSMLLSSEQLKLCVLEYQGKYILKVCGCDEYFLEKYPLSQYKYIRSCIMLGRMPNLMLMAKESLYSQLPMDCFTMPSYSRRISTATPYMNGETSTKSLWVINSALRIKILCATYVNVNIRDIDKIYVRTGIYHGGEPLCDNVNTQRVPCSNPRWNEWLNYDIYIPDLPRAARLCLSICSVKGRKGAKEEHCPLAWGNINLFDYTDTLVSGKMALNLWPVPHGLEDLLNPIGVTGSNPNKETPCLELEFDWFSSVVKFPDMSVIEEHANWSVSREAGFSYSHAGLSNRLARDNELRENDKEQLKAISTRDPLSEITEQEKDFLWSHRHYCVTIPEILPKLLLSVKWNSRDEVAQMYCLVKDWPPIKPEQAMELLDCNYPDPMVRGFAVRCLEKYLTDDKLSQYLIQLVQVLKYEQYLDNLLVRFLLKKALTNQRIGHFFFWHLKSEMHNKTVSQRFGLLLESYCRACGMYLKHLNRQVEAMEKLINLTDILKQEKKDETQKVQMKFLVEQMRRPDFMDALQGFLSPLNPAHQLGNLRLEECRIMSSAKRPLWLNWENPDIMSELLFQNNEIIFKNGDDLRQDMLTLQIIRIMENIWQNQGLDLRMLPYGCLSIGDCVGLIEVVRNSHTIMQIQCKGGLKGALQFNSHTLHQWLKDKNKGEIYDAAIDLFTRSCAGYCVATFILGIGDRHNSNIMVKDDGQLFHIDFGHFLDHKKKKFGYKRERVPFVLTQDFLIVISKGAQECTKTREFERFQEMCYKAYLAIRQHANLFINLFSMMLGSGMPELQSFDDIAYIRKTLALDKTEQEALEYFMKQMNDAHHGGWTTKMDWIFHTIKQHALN
T2 sequence (P27986 whole entry partner): as the sequence (P27986 whole entry partner) above
T1 sequence (P48736 whole entry): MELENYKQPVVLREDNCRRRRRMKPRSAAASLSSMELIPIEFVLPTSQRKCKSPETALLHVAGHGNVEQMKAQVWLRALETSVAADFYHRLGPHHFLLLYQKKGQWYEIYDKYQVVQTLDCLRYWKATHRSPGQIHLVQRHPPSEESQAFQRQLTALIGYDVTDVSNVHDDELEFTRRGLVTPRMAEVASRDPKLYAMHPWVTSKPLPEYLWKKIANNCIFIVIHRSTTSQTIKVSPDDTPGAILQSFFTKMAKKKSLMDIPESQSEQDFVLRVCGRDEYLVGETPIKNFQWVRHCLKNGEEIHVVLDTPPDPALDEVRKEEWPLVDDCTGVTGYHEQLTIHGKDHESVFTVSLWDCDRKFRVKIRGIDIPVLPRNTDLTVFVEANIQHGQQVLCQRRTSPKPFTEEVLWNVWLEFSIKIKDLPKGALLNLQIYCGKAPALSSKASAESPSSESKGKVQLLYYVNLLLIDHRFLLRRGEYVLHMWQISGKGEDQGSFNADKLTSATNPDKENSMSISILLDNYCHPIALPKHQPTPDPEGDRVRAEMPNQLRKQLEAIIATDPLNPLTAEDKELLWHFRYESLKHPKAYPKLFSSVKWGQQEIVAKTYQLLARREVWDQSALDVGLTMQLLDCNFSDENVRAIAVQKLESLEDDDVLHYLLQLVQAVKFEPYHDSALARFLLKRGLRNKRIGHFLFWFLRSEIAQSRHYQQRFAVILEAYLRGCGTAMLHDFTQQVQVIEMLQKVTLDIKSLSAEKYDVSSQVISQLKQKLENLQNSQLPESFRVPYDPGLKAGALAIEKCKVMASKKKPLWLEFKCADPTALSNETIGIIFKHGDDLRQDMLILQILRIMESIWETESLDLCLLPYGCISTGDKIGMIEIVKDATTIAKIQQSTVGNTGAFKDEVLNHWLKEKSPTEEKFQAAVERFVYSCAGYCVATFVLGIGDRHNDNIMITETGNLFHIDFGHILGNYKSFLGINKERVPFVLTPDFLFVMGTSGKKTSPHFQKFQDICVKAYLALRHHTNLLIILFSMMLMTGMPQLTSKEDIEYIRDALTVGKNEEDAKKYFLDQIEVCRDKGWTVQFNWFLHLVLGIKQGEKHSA
PI3K β, sequence (P42338 whole entry): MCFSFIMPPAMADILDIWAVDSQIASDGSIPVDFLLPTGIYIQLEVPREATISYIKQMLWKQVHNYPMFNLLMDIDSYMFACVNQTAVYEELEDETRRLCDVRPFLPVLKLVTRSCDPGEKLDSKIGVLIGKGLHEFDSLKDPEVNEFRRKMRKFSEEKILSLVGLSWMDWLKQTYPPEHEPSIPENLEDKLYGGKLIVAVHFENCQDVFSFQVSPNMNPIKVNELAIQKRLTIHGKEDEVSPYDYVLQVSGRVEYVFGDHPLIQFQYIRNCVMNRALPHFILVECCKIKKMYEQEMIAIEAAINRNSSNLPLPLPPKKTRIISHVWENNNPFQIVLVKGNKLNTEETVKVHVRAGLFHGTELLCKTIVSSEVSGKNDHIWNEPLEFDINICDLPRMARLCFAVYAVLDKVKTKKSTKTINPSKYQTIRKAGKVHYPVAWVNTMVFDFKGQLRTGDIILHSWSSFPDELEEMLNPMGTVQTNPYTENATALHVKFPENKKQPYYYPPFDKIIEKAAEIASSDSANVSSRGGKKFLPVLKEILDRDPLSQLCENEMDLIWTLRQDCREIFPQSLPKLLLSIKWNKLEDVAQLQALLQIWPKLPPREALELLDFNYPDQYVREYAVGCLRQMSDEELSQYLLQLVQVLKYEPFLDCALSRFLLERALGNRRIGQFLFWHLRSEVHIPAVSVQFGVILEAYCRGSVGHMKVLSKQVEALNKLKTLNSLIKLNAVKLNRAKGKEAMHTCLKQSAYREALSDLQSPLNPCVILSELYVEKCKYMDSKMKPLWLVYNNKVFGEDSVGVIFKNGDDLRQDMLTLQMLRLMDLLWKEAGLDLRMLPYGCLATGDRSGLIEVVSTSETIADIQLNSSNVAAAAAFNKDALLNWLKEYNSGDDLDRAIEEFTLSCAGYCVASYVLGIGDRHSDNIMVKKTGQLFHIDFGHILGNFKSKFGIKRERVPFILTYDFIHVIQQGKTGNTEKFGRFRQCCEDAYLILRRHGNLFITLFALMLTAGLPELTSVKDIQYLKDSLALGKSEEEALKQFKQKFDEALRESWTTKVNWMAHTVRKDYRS

Structure (SMILES)	IC50 [1] [nM]	EC50 [2] [nM]	IC50 [3] [nM]	IC50 [4] [nM]	IC50 [5] [nM]
Cc1ccccc1-n1c(Cn2nc(I)c3c(N)ncnc32)cc2cccc(C)c2c1=O [Compound 6]	< 100	< 100	< 100	> 10000	–
Cc1ccccc1-n1c(Cn2nc(C#C[C@@H](C)O)c3c(N)ncnc32)cc2cccc(C)c2c1=O [Compound 37]	< 100	–	< 10000	> 10000	> 10000
Nc1ncnc2c1c(-c1cn[nH]c1)nn2Cc1cc2cccc(F)c2c(=O)n1-c1ccccc1F [Compound 189]	< 1000	–	< 10000	> 10000	> 10000
CC(Nc1ncnc2[nH]cnc12)c1cc2ccccc2c(=O)n1-c1ccccc1 (stereo not shown) [Compound 220]	< 100	–	< 1000	> 10000	< 10000
Cc1cccc2cc([C@H](C)Nc3ncnc4[nH]cc(C(N)=O)c34)n(-c3ccccc3)c(=O)c12 [Compound 288]	< 100	–	< 100	< 1000	< 100
Cc1cccc2cc(Cn3nc(-c4cn[nH]c4)c4c(N)ncnc43)n(-c3ccccc3C(C)C)c(=O)c12 [Compound 185]	< 100	–	< 100	< 10000	< 1000
Cc1cccc2cc(Cn3nc(-c4ccc(O)c(F)c4)c4c(N)ncnc43)n(-c3ccccc3F)c(=O)c12 [Compound 29]	< 1000	–	< 100	> 10000	> 10000
Cc1cccc2cc([C@H](C)Nc3ncc(C(F)(F)F)c(N)n3)n(-c3ccccc3)c(=O)c12 [Compound 325]	< 10000	–	> 10000	> 10000	> 10000
CC(=O)Nc1nc2ccc(-c3nn(Cc4cc5cccc(C)c5c(=O)n4-c4ccccc4C)c4ncnc(N)c34)cc2[nH]1 [Compound 296]	< 100	–	< 100	< 10000	< 10000
Cc1cccc2cc(Cn3nc(-c4cnn(C)c4)c4c(N)ncnc43)n(-c3ccccc3F)c(=O)c12 [Compound 164]	< 10000	–	< 10000	> 10000	> 10000
COc1ccccc1-n1c(Cn2nc(-c3cccc(O)c3)c3c(N)ncnc32)cc2cccc(C)c2c1=O [Compound 74]	< 100	–	< 100	> 10000	< 10000
Cc1cccc2cc([C@H](C)Nc3ncnc4[nH]nc(Cl)c34)n(C3CC3)c(=O)c12 [Compound 293]	< 100	–	< 1000	> 10000	< 1000
CCC(Nc1ncnc2[nH]cnc12)c1cc2cccc(C)c2c(=O)n1C1CCC1 (stereo not shown) [Compound 212]	< 100	–	< 1000	> 10000	< 10000
CC(=O)Nc1nc2ccc(-c3nn(Cc4cc5cccc(C)c5c(=O)n4-c4ccccc4)c4ncnc(N)c34)cc2s1 [Compound 177]	< 100	–	< 100	< 1000	< 10000
CCn1c(Cn2nc(-c3ccc4nc(NC(C)=O)sc4c3)c3c(N)ncnc32)cc2cccc(C)c2c1=O [Compound 176]	< 100	–	< 100	< 100	< 1000
COC(=O)c1nn(CC2=Cc3cccc(C)c3C(=O)C2c2ccccc2C)c2ncnc(N)c12 (stereo not shown) [Compound 299]	< 1000	–	< 10000	> 10000	> 10000
Cc1cccc2cc(Cn3nc(C#C[C@@H](C)O)c4c(N)ncnc43)n(C3CC3)c(=O)c12 [Compound 100]	< 100	–	< 1000	> 10000	< 1000
Cc1cccc2cc(Cn3nc(-c4cc(O)cc(F)c4)c4c(N)ncnc43)n(C3CCCC3)c(=O)c12 [Compound 63]	< 100	–	< 100	< 10000	< 10000
CCC(Nc1ncnc2[nH]cnc12)c1cc2ccccc2c(=O)n1-c1ccccc1 (stereo not shown) [Compound 221]	< 100	–	< 10000	> 10000	> 10000
Cc1ccccc1-n1c(Cn2nc(-c3ccc4nc(N)sc4c3)c3c(N)ncnc32)cc2cccc(C)c2c1=O [Compound 145]	< 100	–	< 100	< 1000	< 10000
Cc1cccc2cc([C@H](C)Nc3nc(N)ncc3Cl)n(C3CC3)c(=O)c12 [Compound 267]	< 100	–	< 1000	> 10000	< 1000
Cc1ccccc1-n1c(Cn2nc(CN3CCOCC3)c3c(N)ncnc32)cc2cccc(C)c2c1=O [Compound 194]	< 10000	–	> 10000	> 10000	> 10000
Cc1cccc2cc(Cn3nc(Br)c4c(N)ncnc43)n(-c3ccccc3F)c(=O)c12 [Compound 35]	< 1000	–	< 10000	> 10000	> 10000
Cc1cccc2cc([C@H](C)Nc3nc(F)nc4[nH]cnc34)n(C3CC3)c(=O)c12 [Compound 279]	< 100	–	< 1000	< 10000	< 100
Cc1cccc2cc([C@H](C)Nc3nc(Cl)nc4[nH]cnc34)n(C3CC3)c(=O)c12 [Compound 268]	< 100	–	< 1000	> 10000	< 100
